# Literature values, collected in US4738979A, “α2 -blocking derivatives of imidazole” (G. D. Searle & Co., priority 1985, dated 1988).
# Test system: α2 -adrenergic receptors
# Settings: cited from earlier work
SMILES,selectivity (in words),side-effects (in words)
COC(=O)[C@H]1[C@H]2C[C@H]3c4[nH]c5ccccc5c4CCN3C[C@H]2CC[C@@H]1O [rauwolscine],lack selectivity,numerous side-effects
COC(=O)[C@@H]1[C@H]2C[C@H]3c4[nH]c5ccccc5c4CCN3C[C@@H]2CC[C@@H]1O [yohimbine],lack selectivity,numerous side-effects
